Patent US10988523B2, “Modified lipidated Relaxin B chain peptides and their therapeutic use” (Sanofi, priority 2018, dated 2021)
*1 amine or outer side, *2 acyl side, *3 side chain or, on linkers, in order; H or OH if unused. Where a SMILES comes first, the peptide text is derived from it. Side-chain parts run from the residue outwards. [ ]: non-standard residue; d: D form. The star is where a group is joined. PEG24 = NCCOCCOCCOCCOCCOCCOCCOCCOCCOCCOCCOCCOCCOCCOCCOCCOCCOCCOCCOCCOCCOCCOCCOCCOCCC(=O)O; PEG12 = NCCOCCOCCOCCOCCOCCOCCOCCOCCOCCOCCOCCOCCC(=O)O; γGlu = O=C(O)[C@H](CCC(=O)[*:2])N[*:1]; Stearoyl = CCCCCCCCCCCCCCCCCC(=O)*; Palmitoyl = CCCCCCCCCCCCCCCC(=O)*; αMeK = C[C@](N)(CCCCN)C(=O)O; αMeS = C[C@](N)(CO)C(=O)O; Nle = CCCC[C@H](N)C(=O)O; AEEA = NCCOCCOCC(=O)O; Aib = CC(C)(N)C(=O)O

Target: T1, RXFP1 (Homo sapiens, UniProt Q9HBX9)
T1 construct: OVCAR5 cells expressing endogenous RXFP1; endogenous in cells; host or cells: OVCAR5 cells
T1 sequence (Q9HBX9 1-757): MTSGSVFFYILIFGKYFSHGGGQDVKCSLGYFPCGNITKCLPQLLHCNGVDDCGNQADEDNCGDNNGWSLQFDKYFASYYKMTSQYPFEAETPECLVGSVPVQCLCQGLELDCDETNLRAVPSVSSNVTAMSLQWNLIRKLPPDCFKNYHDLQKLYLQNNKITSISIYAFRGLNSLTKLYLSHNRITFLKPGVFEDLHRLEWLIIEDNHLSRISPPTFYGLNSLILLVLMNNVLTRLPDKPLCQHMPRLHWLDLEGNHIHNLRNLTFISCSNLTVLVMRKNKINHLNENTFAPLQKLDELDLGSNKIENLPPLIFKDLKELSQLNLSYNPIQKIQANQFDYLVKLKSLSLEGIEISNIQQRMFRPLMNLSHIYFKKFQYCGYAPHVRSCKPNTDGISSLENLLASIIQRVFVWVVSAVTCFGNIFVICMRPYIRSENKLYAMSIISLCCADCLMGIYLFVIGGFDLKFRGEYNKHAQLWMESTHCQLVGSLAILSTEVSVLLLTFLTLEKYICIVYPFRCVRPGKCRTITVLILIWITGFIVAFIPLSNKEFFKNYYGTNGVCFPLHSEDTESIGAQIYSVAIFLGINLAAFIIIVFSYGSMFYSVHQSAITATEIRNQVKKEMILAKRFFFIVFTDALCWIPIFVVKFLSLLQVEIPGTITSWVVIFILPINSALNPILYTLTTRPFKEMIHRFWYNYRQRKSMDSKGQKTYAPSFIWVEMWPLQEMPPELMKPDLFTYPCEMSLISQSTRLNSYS
Experiment: OVCAR5 cAMP assay (HTRF), RXFP1 agonist activity
Type: cell-based
Details: for Emax: OVCAR-5, maximal cAMP relative to H2-relaxin maximum (100%), read-out: EMax, OVCAR 5 cells (cAMP); for EC50: OVCAR5 cells, cAMP HTRF, read-out: EC50 (nM), OVCAR 5 cells (cAMP)
In short: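 OVCAR5 cells (endogenous RXFP1) pretreated 40 min at 37° C with 1 mM IBMX, then exposed to peptides in serum-free medium for 30 min at 37° C. Lysate cAMP read by HTRF; EC50 from variable-slope sigmoidal fit; Emax as % of H2-relaxin maximal cAMP in same run.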

| Emax [%] | EC50 [nM] | Compound |
| --- | --- | --- |
| 106 | 0.14 | CCCCCCCCCCCCCCCC(=O)N[C@@H](CCC(=O)N[C@@H](CCC(=O)N[C@@H](CCC(=O)N[C@@H](CCC(=O)NCCCC[C@H](NC(=O)CCOCCOCCOCCOCCOCCOCCOCCOCCOCCOCCOCCOCCNC(=O)[C@H](CCCCNC(C)=O)NC(=O)[C@H](CCCCN)NC(=O)[C@H](CCCNC(=N)N)NC(=O)[C@](C)(CCCCN)NC(=O)[C@H](CO)NC(=O)[C@H](Cc1c[nH]c2ccccc12)NC(=O)[C@@H](NC(=O)[C@H](CO)NC(=O)[C@H](CCCC)NC(=O)CNC(=O)[C@H](CCC(=O)O)NC(=O)C(C)(C)NC(=O)C(C)(C)NC(=O)[C@@H](NC(=O)[C@H](CCCCNC(C)=O)NC(=O)[C@H](C)NC(=O)[C@H](CCCNC(=N)N)NC(=O)[C@@H](NC(=O)[C@H](CCCCN)NC(=O)[C@H](CCC(=O)O)NC(=O)[C@H](CCCNC(=N)N)NC(=O)CNC(=O)[C@H](CCC(=O)O)NC(=O)[C@H](CC(C)C)NC(C)=O)C(C)C)[C@@H](C)CC)[C@@H](C)O)C(N)=O)C(=O)O)C(=O)O)C(=O)O)C(=O)O [compound 43] (Ac-LEGREKVRAK(Ac)I[Aib][Aib]EG[Nle]STWS[αMeK]RKK(Ac)[PEG12]K([γGlu-γGlu-γGlu-γGlu-Palmitoyl])-NH2) |
| 75 | – | CCCCCCCCCCCCCCCC(=O)N[C@@H](CCC(=O)N[C@@H](CCC(=O)N[C@@H](CCC(=O)NCCOCCOCC(=O)NCCOCCOCC(=O)NCCOCCOCC(=O)NCCCC[C@H](NC(=O)[C@H](CCCCNC(C)=O)NC(=O)[C@H](CCCCN)NC(=O)[C@H](CCCNC(=N)N)NC(=O)C(C)(C)NC(=O)[C@H](CO)NC(=O)[C@H](Cc1ccc(O)cc1)NC(=O)[C@@H](NC(=O)[C@H](CO)NC(=O)[C@H](CCC(N)=O)NC(=O)CNC(=O)[C@H](CCC(=O)O)NC(=O)C(C)(C)NC(=O)C(C)(C)NC(=O)[C@@H](NC(=O)[C@H](CCCCNC(C)=O)NC(=O)[C@H](C)NC(=O)[C@H](CCCNC(=N)N)NC(=O)[C@@H](NC(=O)[C@H](CCCCN)NC(=O)[C@H](CCC(=O)O)NC(=O)[C@H](CCCNC(=N)N)NC(=O)CNC(=O)[C@H](CCC(=O)O)NC(=O)[C@H](CC(C)C)NC(C)=O)C(C)C)[C@@H](C)CC)[C@@H](C)O)C(N)=O)C(=O)O)C(=O)O)C(=O)O [compound 44] (Ac-LEGREKVRAK(Ac)I[Aib][Aib]EGQSTYS[Aib]RKK(Ac)K([AEEA-AEEA-AEEA-γGlu-γGlu-γGlu-Palmitoyl])-NH2) |
| 79 | 0.61 | CCCCCCCCCCCCCCCCCC(=O)N[C@@H](CCC(=O)N[C@@H](CCC(=O)N[C@@H](CCC(=O)NCCCC[C@H](NC(=O)CCOCCOCCOCCOCCOCCOCCOCCOCCOCCOCCOCCOCCNC(=O)[C@H](CCCCNC(C)=O)NC(=O)[C@H](CCCCN)NC(=O)[C@H](CCCNC(=N)N)NC(=O)C(C)(C)NC(=O)[C@H](CO)NC(=O)[C@H](Cc1ccc(O)cc1)NC(=O)[C@@H](NC(=O)[C@H](CO)NC(=O)[C@H](CCCC)NC(=O)CNC(=O)[C@H](CCC(=O)O)NC(=O)C(C)(C)NC(=O)C(C)(C)NC(=O)[C@@H](NC(=O)[C@H](CCCCNC(C)=O)NC(=O)[C@H](C)NC(=O)[C@H](CCCNC(=N)N)NC(=O)[C@@H](NC(=O)[C@H](CCCCN)NC(=O)[C@H](CCC(=O)O)NC(=O)[C@H](CCCNC(=N)N)NC(=O)CNC(=O)[C@H](CCC(=O)O)NC(=O)[C@H](CC(C)C)NC(C)=O)C(C)C)[C@@H](C)CC)[C@@H](C)O)C(N)=O)C(=O)O)C(=O)O)C(=O)O [compound 46] (Ac-LEGREKVRAK(Ac)I[Aib][Aib]EG[Nle]STYS[Aib]RKK(Ac)[PEG12]K([γGlu-γGlu-γGlu-Stearoyl])-NH2) |

More lines, now with the values behind:

| Compound | Emax [%] | EC50 [nM] |
| --- | --- | --- |
| CCCCCCCCCCCCCCCCCC(=O)N[C@@H](CCC(=O)N[C@@H](CCC(=O)N[C@@H](CCC(=O)NCCCC[C@H](NC(=O)CCOCCOCCOCCOCCOCCOCCOCCOCCOCCOCCOCCOCCNC(=O)[C@H](CCCCN)NC(=O)[C@H](CCCNC(=N)N)NC(=O)C(C)(C)NC(=O)[C@H](CO)NC(=O)[C@H](Cc1c[nH]c2ccccc12)NC(=O)[C@@H](NC(=O)[C@H](CO)NC(=O)[C@H](CCSC)NC(=O)CNC(=O)[C@H](CCC(=O)O)NC(=O)C(C)(C)NC(=O)C(C)(C)NC(=O)[C@@H](NC(=O)[C@H](CCCCNC(C)=O)NC(=O)[C@H](C)NC(=O)[C@H](CCCNC(=N)N)NC(=O)[C@@H](NC(=O)[C@H](CCCCN)NC(=O)[C@H](CCC(=O)O)NC(=O)[C@H](CCCNC(=N)N)NC(=O)CNC(=O)[C@H](CCC(=O)O)NC(=O)[C@H](CC(C)C)NC(C)=O)C(C)C)[C@@H](C)CC)[C@@H](C)O)C(N)=O)C(=O)O)C(=O)O)C(=O)O [compound 35] (Ac-LEGREKVRAK(Ac)I[Aib][Aib]EGMSTWS[Aib]RK[PEG12]K([γGlu-γGlu-γGlu-Stearoyl])-NH2) | 95 | – |
| CCCCCCCCCCCCCCCCCC(=O)N[C@@H](CCC(=O)N[C@@H](CCC(=O)N[C@@H](CCC(=O)NCCCC[C@H](NC(=O)CCOCCOCCOCCOCCOCCOCCOCCOCCOCCOCCOCCOCCNC(=O)[C@H](CCCCNC(C)=O)NC(=O)[C@H](CCCCN)NC(=O)[C@H](CCCNC(=N)N)NC(=O)C(C)(C)NC(=O)[C@H](CO)NC(=O)[C@H](Cc1c[nH]c2ccccc12)NC(=O)[C@@H](NC(=O)[C@H](CO)NC(=O)[C@H](CCCC)NC(=O)CNC(=O)[C@H](CCC(=O)O)NC(=O)C(C)(C)NC(=O)C(C)(C)NC(=O)[C@@H](NC(=O)[C@H](CCCCNC(C)=O)NC(=O)C(C)(C)NC(=O)[C@H](CCCNC(=N)N)NC(=O)[C@@H](NC(=O)[C@H](CCCCN)NC(=O)[C@H](CCC(=O)O)NC(=O)[C@H](CCCNC(=N)N)NC(=O)CNC(=O)[C@H](CCC(=O)O)NC(=O)[C@H](CC(C)C)NC(C)=O)C(C)C)[C@@H](C)CC)[C@@H](C)O)C(N)=O)C(=O)O)C(=O)O)C(=O)O [compound 36] (Ac-LEGREKVR[Aib]K(Ac)I[Aib][Aib]EG[Nle]STWS[Aib]RKK(Ac)[PEG12]K([γGlu-γGlu-γGlu-Stearoyl])-NH2) | 84 | – |
| CCCCCCCCCCCCCCCCCC(=O)N[C@@H](CCC(=O)N[C@@H](CCC(=O)N[C@@H](CCC(=O)NCCCC[C@H](NC(=O)CCOCCOCCOCCOCCOCCOCCOCCOCCOCCOCCOCCOCCNC(=O)[C@H](CCCCNC(C)=O)NC(=O)[C@H](CCCCN)NC(=O)[C@H](CCCNC(=N)N)NC(=O)C(C)(C)NC(=O)[C@](C)(CO)NC(=O)[C@H](Cc1c[nH]c2ccccc12)NC(=O)[C@@H](NC(=O)[C@H](CO)NC(=O)[C@H](CCCC)NC(=O)CNC(=O)[C@H](CCC(=O)O)NC(=O)C(C)(C)NC(=O)C(C)(C)NC(=O)[C@@H](NC(=O)[C@H](CCCCNC(C)=O)NC(=O)[C@H](C)NC(=O)[C@H](CCCNC(=N)N)NC(=O)[C@@H](NC(=O)[C@H](CCCCN)NC(=O)[C@H](CCC(=O)O)NC(=O)[C@H](CCCNC(=N)N)NC(=O)CNC(=O)[C@H](CCC(=O)O)NC(=O)[C@H](CC(C)C)NC(C)=O)C(C)C)[C@@H](C)CC)[C@@H](C)O)C(N)=O)C(=O)O)C(=O)O)C(=O)O [compound 41] (Ac-LEGREKVRAK(Ac)I[Aib][Aib]EG[Nle]STW[αMeS][Aib]RKK(Ac)[PEG12]K([γGlu-γGlu-γGlu-Stearoyl])-NH2) | 87 | 0.09 |
| CCCCCCCCCCCCCCCC(=O)N[C@@H](CCC(=O)N[C@@H](CCC(=O)N[C@@H](CCC(=O)NCCCC[C@H](NC(=O)CCOCCOCCOCCOCCOCCOCCOCCOCCOCCOCCOCCOCCOCCOCCOCCOCCOCCOCCOCCOCCOCCOCCOCCOCCNC(=O)[C@H](CCCCN)NC(=O)[C@H](CCCNC(=N)N)NC(=O)C(C)(C)NC(=O)[C@H](CO)NC(=O)[C@H](Cc1c[nH]c2ccccc12)NC(=O)[C@@H](NC(=O)[C@H](CO)NC(=O)[C@H](CCSC)NC(=O)CNC(=O)[C@H](CCC(=O)O)NC(=O)C(C)(C)NC(=O)C(C)(C)NC(=O)[C@@H](NC(=O)[C@H](CCC(N)=O)NC(=O)[C@H](C)NC(=O)[C@H](CCCNC(=N)N)NC(=O)[C@@H](NC(=O)[C@H](CCCCN)NC(=O)[C@H](CCC(=O)O)NC(=O)[C@H](CCCNC(=N)N)NC(=O)CNC(=O)[C@H](CCC(=O)O)NC(=O)[C@H](CC(C)C)NC(C)=O)C(C)C)[C@@H](C)CC)[C@@H](C)O)C(N)=O)C(=O)O)C(=O)O)C(=O)O [compound 47] (Ac-LEGREKVRAQI[Aib][Aib]EGMSTWS[Aib]RK[PEG24]K([γGlu-γGlu-γGlu-Palmitoyl])-NH2) | 100 | – |
